Three molecules from ChEMBL document CHEMBL3044649, “Zn(OTf)2-catalyzed three component, one-pot cyclocondensation reaction of some new octahydroquinazolinone derivatives and access their bio-potential” (2012) can be followed below.

Common to all, as to assay type: functional
One assay concerns Vibrio cholerae. Nature of the assay: Antimicrobial activity against Vibrio cholerae MTCC 3906 after 24 to 48 hr by broth microdilution method. A general note: In broth dilution the organism is exposed to a series of concentrations in liquid medium.
The subject of the next assay is Aspergillus fumigatus. Nature of the assay: Antimicrobial activity against Aspergillus fumigatus MTCC 3008 after 24 to 48 hr by broth microdilution method.
The subject of another assay is Bacillus subtilis. Nature of the assay: Antimicrobial activity against Bacillus subtilis MTCC 441 after 24 to 48 hr by broth microdilution method.
Another assay concerns Streptococcus pneumoniae. Nature of the assay: Antimicrobial activity against Streptococcus pneumoniae MTCC 1936 after 24 to 48 hr by broth microdilution method.
The subject of another assay is Escherichia coli. Nature of the assay: Antimicrobial activity against Escherichia coli MTCC 443 after 24 to 48 hr by broth microdilution method.
The next assay has as its system Candida albicans. Nature of the assay: Antimicrobial activity against Candida albicans MTCC 227 after 24 to 48 hr by broth microdilution method.
For a further assay, the system named is Salmonella typhi. Nature of the assay: Antimicrobial activity against Salmonella enterica subsp. enterica serovar Typhi MTCC 98 after 24 to 48 hr by broth microdilution method.
The next assay has as its system Clostridium tetani. Nature of the assay: Antimicrobial activity against Clostridium tetani MTCC 449 after 24 to 48 hr by broth microdilution method.

The structures appear in SMILES notation. Values after ≈ are worked out from the molar mass of the structure shown.

What is called MIC is the lowest concentration found to suppress growth.

`O=C1NC2=C(C(=O)CCC2)C(c2cc3ccccc3[nH]c2=S)N1` (centres undefined): the MIC with Vibrio cholerae was 500 µg/mL (≈ 1540 µM); with Aspergillus fumigatus, 500 µg/mL (≈ 1540 µM); in the assay on Bacillus subtilis, 500 µg/mL (≈ 1540 µM); against Streptococcus pneumoniae, 500 µg/mL (≈ 1540 µM); in the assay on Escherichia coli it was 500 µg/mL (≈ 1540 µM); against Candida albicans it was 1000 µg/mL (≈ 3070 µM). Moreover, the MIC was 200 µg/mL (≈ 615 µM) in the assay on Salmonella typhi and 500 µg/mL (≈ 1540 µM) in the assay on Clostridium tetani.

In the case of `COc1ccc2[nH]c(=O)c(C3NC(=O)NC4=C3C(=O)CCC4)cc2c1` (centres undefined), the MIC in the assay with Vibrio cholerae worked out at 500 µg/mL (≈ 1470 µM); against Aspergillus fumigatus, 1000 µg/mL (≈ 2950 µM); against Bacillus subtilis it was 250 µg/mL (≈ 737 µM); with Streptococcus pneumoniae it was 250 µg/mL (≈ 737 µM); against Escherichia coli, 100 µg/mL (≈ 295 µM); against Candida albicans it was 500 µg/mL (≈ 1470 µM). The MIC was determined as 250 µg/mL (≈ 737 µM) in the assay with Salmonella typhi and 500 µg/mL (≈ 1470 µM) against Clostridium tetani.

On to `Cc1ccc2[nH]c(=O)c(C3NC(=S)N(c4ccccc4)C4=C3C(=O)CC(C)(C)C4)cc2c1` (centres undefined), for which the minimal inhibitory concentration (MIC) was 250 µg/mL (≈ 564 µM) against Vibrio cholerae; 500 µg/mL (≈ 1130 µM) with Aspergillus fumigatus; 250 µg/mL (≈ 564 µM) in the assay with Bacillus subtilis; 1000 µg/mL (≈ 2250 µM) against Streptococcus pneumoniae; 1000 µg/mL (≈ 2250 µM) against Escherichia coli; 1000 µg/mL (≈ 2250 µM) in the assay with Candida albicans. In addition, the MIC in the assay on Salmonella typhi came out at 500 µg/mL (≈ 1130 µM); with Clostridium tetani, 250 µg/mL (≈ 564 µM).
